Results as given in patent US9080173B2, “Methods and compositions for RNAi-based cancer treatment” (SILENSEED LTD., priority 2012, dated 2015).
d = 2'-deoxy (DNA); r = 2'-OH (RNA)

Columns and labels:
Panc1-LUC tumors = assay: Survival of SCIDbg mice with s.c. Panc1-LUC tumors; format: in vivo; conditions: 4 μg siG12D in 200 μl PBS i.p. weekly; over 41 days
Experimental: Mice were injected s.c. with 10×10^6 Panc1-LUC tumor cells in a total volume of 100 μl PBS, or into the tail of the pancreas with 10^6 cells in a total volume of 30 μl PBS.
In another experiment, 30 SCIDbg mice were injected s.c. with Panc1-LUC tumor cells, and were divided into 4 groups: (a) siG12D-DDD (12 μg siG12D per DDD)—2 DDD placed in each mouse; (b) empty DDD—2 DDD placed in each mouse; (c) 4 μg siG12D in 200 μl PBS injected intraperitoneally (i.p.) on a weekly basis; and (d) untreated. Tumor development was measured by caliper and Luciferase measurements. […] The difference in survival was statistically significant (p<0.05 compared to the other 3 groups).

Panc1 cells = assay: Methylene Blue viability test of transfected Panc1 cells, alone and with Gemzar; format: cell-based; conditions: 72h post-transfection; 1 hr of treatment with 10 μM Gemzar
Experimental: FIG. 7. Gemzar® enhances siG12D-DDD effect. Panc1 cells were transfected using Lipofectamine™ with unmodified and modified siG12D and a scrambled (non-targeting) siRNA control molecule or were mock transfected (no siRNA). Cell viability was assessed 72 hrs post-transfection by the Methylene Blue (MB) test. Additional groups were transfected as described above, followed by 1 hr of treatment with 10 μM Gemzar®. The numbers 1-4 in the last column relate to the percent of inhibition of cellular growth, wherein the inhibition seen with the unmodified siRNA was assigned the value of 100%. 4, 3, 2, and 1 refer respectively to 75-100%, 50-75%, 25-50%, and 0-25% of the inhibition seen with the unmodified siRNA.
Experimental procedure: Panc1 cells were transfected using Lipofectamine™ with unmodified and modified siG12D and a scrambled (non-targeting) siRNA control molecule or were mock transfected (no siRNA). Cell viability was assessed 72 hrs post-transfection by the Methylene Blue (MB) test. Additional groups were transfected as described above, followed by 1 hr of treatment with 10 μM Gemzar®. At the exemplary time point of 72h, Gemzar® enhanced the effect of siG12D by nearly 10%. […] Other time points, for example 48h, 72h, 96h and 120h, may be utilized in additional studies.

sense GUUGGAGCUGAUGGCGUAGdTdT (SEQ ID No: 41), antisense CUACGCCAUCAGCUCCAACdTdT (SEQ ID No: 42) (sense GUUGGAGCUGAUGGCGUAGTT; antisense CUACGCCAUCAGCUCCAACTT; sugars from the 5' end r19 d2, backbone not given here) [siG12D, unmodified siRNA against G12D-mutated K-ras]
survival rate (Panc1-LUC tumors): 33.33% | enhancement of the effect of siG12D on cell viability by Gemzar (Panc1 cells): ~10%
